From ChEMBL document CHEMBL4627327, “Antibacterial activity of singly and doubly modified salinomycin derivatives” (Bioorg Med Chem Lett, 2020)
≈ marks a conversion by molar mass, not a printed value. Calls of active or inactive are those of the source. No cut-off for these calls is given here.

Tests used:
[1] = system: Pseudomonas aeruginosa; assay: Antibacterial activity against Pseudomonas aeruginosa ATCC 15442 assessed as bacterial growth inhibition measured after 18 hrs by CLSI protocol based two-fold serial microdilution method; format: functional, organism-based
[2] = system: Pseudomonas aeruginosa; assay: Antibacterial activity against Pseudomonas aeruginosa ATCC 27853 assessed as bacterial growth inhibition measured after 18 hrs by CLSI protocol based two-fold serial microdilution method; format: functional, organism-based
[3] = system: Escherichia coli; assay: Antibacterial activity against Escherichia coli NCTC 8196 assessed as bacterial growth inhibition measured after 18 hrs by CLSI protocol based two-fold serial microdilution method; format: functional, organism-based
[4] = system: Escherichia coli; assay: Antibacterial activity against Escherichia coli ATCC 25922 assessed as bacterial growth inhibition measured after 18 hrs by CLSI protocol based two-fold serial microdilution method; format: functional, organism-based
[5] = system: Staphylococcus epidermidis; assay: Antibacterial activity against methicillin-resistant Staphylococcus epidermidis isolate 574 assessed as bacterial growth inhibition measured after 18 hrs by CLSI protocol based two-fold serial microdilution method; format: functional; settings: isolate 574, 18 h
[6] = system: Staphylococcus epidermidis; assay: Antibacterial activity against methicillin-resistant Staphylococcus epidermidis isolate 602 assessed as bacterial growth inhibition measured after 18 hrs by CLSI protocol based two-fold serial microdilution method; format: functional; settings: isolate 602, 18 h
[7] = system: Staphylococcus epidermidis; assay: Antibacterial activity against methicillin-resistant Staphylococcus epidermidis isolate 603 assessed as bacterial growth inhibition measured after 18 hrs by CLSI protocol based two-fold serial microdilution method; format: functional; settings: isolate 603, 18 h
[8] = system: Staphylococcus epidermidis; assay: Antibacterial activity against methicillin-resistant Staphylococcus epidermidis isolate 609 assessed as bacterial growth inhibition measured after 18 hrs by CLSI protocol based two-fold serial microdilution method; format: functional; settings: isolate 609, 18 h
[9] = system: Staphylococcus epidermidis; assay: Antibacterial activity against methicillin-resistant Staphylococcus epidermidis isolate 610 assessed as bacterial growth inhibition measured after 18 hrs by CLSI protocol based two-fold serial microdilution method; format: functional; settings: isolate 610, 18 h
[10] = system: Staphylococcus epidermidis; assay: Antibacterial activity against methicillin-resistant Staphylococcus epidermidis isolate 654 assessed as bacterial growth inhibition measured after 18 hrs by CLSI protocol based two-fold serial microdilution method; format: functional; settings: isolate 654, 18 h
[11] = system: Staphylococcus epidermidis; assay: Antibacterial activity against methicillin-resistant Staphylococcus epidermidis isolate 660 assessed as bacterial growth inhibition measured after 18 hrs by CLSI protocol based two-fold serial microdilution method; format: functional; settings: isolate 660, 18 h
[12] = system: Staphylococcus aureus; assay: Antibacterial activity against methicillin-resistant Staphylococcus aureus isolate 583 assessed as bacterial growth inhibition measured after 18 hrs by CLSI protocol based two-fold serial microdilution method; format: functional; settings: isolate 583, 18 h
[13] = system: Staphylococcus aureus; assay: Antibacterial activity against methicillin-resistant Staphylococcus aureus isolate 584 assessed as bacterial growth inhibition measured after 18 hrs by CLSI protocol based two-fold serial microdilution method; format: functional; settings: isolate 584, 18 h
[14] = system: Staphylococcus aureus; assay: Antibacterial activity against methicillin-resistant Staphylococcus aureus isolate 612 assessed as bacterial growth inhibition measured after 18 hrs by CLSI protocol based two-fold serial microdilution method; format: functional; settings: isolate 612, 18 h
[15] = system: Staphylococcus aureus; assay: Antibacterial activity against methicillin-resistant Staphylococcus aureus isolate 620 assessed as bacterial growth inhibition measured after 18 hrs by CLSI protocol based two-fold serial microdilution method; format: functional; settings: isolate 620, 18 h
[16] = system: Staphylococcus aureus; assay: Antibacterial activity against methicillin-resistant Staphylococcus aureus isolate 621 assessed as bacterial growth inhibition measured after 18 hrs by CLSI protocol based two-fold serial microdilution method; format: functional; settings: isolate 621, 18 h
[17] = system: Staphylococcus aureus; assay: Antibacterial activity against methicillin-resistant Staphylococcus aureus isolate 750 assessed as bacterial growth inhibition measured after 18 hrs by CLSI protocol based two-fold serial microdilution method; format: functional; settings: isolate 750, 18 h
[18] = system: Staphylococcus aureus; assay: Antibacterial activity against methicillin-resistant Staphylococcus aureus isolate 770 assessed as bacterial growth inhibition measured after 18 hrs by CLSI protocol based two-fold serial microdilution method; format: functional; settings: isolate 770, 18 h
[19] = Genotoxicity in rec negative Bacillus subtilis M45 assessed as diameter of inhibition zone at 256 ug measured after 24 hrs by rec-assay; format: toxicity; settings: in vivo
[20] = Genotoxicity in rec-positive Bacillus subtilis H17 assessed as diameter of inhibition zone at 256 ug measured after 24 hrs by rec-assay; format: toxicity; settings: in vivo
[21] = system: Staphylococcus epidermidis; assay: Inhibition of biofilm formation in Staphylococcus epidermidis ATCC 35984 at 1 to 8 ug/ml measured after 24 hrs by crystal violet staining based assay; format: functional, organism-based
[22] = system: Staphylococcus epidermidis; assay: Inhibition of biofilm formation in Staphylococcus epidermidis ATCC 12228 at 1 to 8 ug/ml measured after 24 hrs by crystal violet staining based assay; format: functional, organism-based

SMILES | Activity [1] | Activity [2] | Activity [3] | Activity [4] | MIC [5] [µM] | MIC [6] [µM] | MIC [7] [µM] | MIC [8] [µM] | MIC [9] [µM] | MIC [10] [µM] | MIC [11] [µM] | MIC [12] [µM] | MIC [13] [µM] | MIC [14] [µM] | MIC [15] [µM] | MIC [16] [µM] | MIC [17] [µM] | MIC [18] [µM] | diameter of the inhibition zone (DIZ) [19] [mm] | diameter of the inhibition zone (DIZ) [20] [mm] | other results
CC[C@@H](C(=O)[C@@H](C)[C@@H](O)[C@H](C)[C@@H]1O[C@@H]([C@@H](CC)C(=O)O)CC[C@@H]1C)[C@H]1O[C@]2(C=C[C@@H](O)[C@]3(CC[C@@](C)([C@H]4CC[C@](O)(CC)[C@H](C)O4)O3)O2)[C@H](C)C[C@@H]1C [SALINOMYCIN] | inactive | inactive | inactive | inactive | 1.33 (≈ 0.999 µg/mL) | 1.33 (≈ 0.999 µg/mL) | 2.66 (≈ 2 µg/mL) | 1.33 (≈ 0.999 µg/mL) | 1.33 (≈ 0.999 µg/mL) | 5.33 (≈ 4 µg/mL) | 5.33 (≈ 4 µg/mL) | 2.66 (≈ 2 µg/mL) | 2.66 (≈ 2 µg/mL) | 1.33 (≈ 0.999 µg/mL) | 1.33 (≈ 0.999 µg/mL) | 2.66 (≈ 2 µg/mL) | 1.33 (≈ 0.999 µg/mL) | 2.66 (≈ 2 µg/mL) | 34 | 32 | –
O=[N+]([O-])c1cc[n+]([O-])c2ccccc12 [4-NITROQUINOLINE-1-OXIDE] | – | – | – | – | – | – | – | – | – | – | – | – | – | – | – | – | – | – | 34 | 22 | –
CC[C@@H](C(=O)[C@@H](C)[C@@H](O)[C@H](C)[C@@H]1O[C@@H]([C@@H](CC)C(=O)O)CC[C@@H]1C)[C@H]1O[C@]2(C=CC(=O)[C@]3(CC[C@@](C)([C@H]4CC[C@](O)(CC)[C@H](C)O4)O3)O2)[C@H](C)C[C@@H]1C | inactive | inactive | inactive | inactive | 1.34 (≈ 1 µg/mL) | 2.67 (≈ 2 µg/mL) | 2.67 (≈ 2 µg/mL) | 2.67 (≈ 2 µg/mL) | 2.67 (≈ 2 µg/mL) | 5.34 (≈ 4 µg/mL) | 5.34 (≈ 4 µg/mL) | 2.67 (≈ 2 µg/mL) | 2.67 (≈ 2 µg/mL) | 2.67 (≈ 2 µg/mL) | 2.67 (≈ 2 µg/mL) | 2.67 (≈ 2 µg/mL) | 2.67 (≈ 2 µg/mL) | 2.67 (≈ 2 µg/mL) | 34 | 32 | inhibition [21]: Active; inhibition [22]: Active
C#CCOC(=O)[C@H](CC)[C@H]1CC[C@H](C)[C@H]([C@@H](C)[C@H](O)[C@H](C)C(=O)[C@H](CC)[C@H]2O[C@]3(C=C[C@@H](O)[C@]4(CC[C@@](C)([C@H]5CC[C@](O)(CC)[C@H](C)O5)O4)O3)[C@H](C)C[C@@H]2C)O1 | inactive | inactive | inactive | inactive | – | – | – | – | – | – | – | – | – | – | – | – | – | – | – | – | –
CC[C@@H](C(=O)[C@@H](C)[C@@H](O)[C@H](C)[C@@H]1O[C@@H]([C@@H](CC)C(=O)NCC(F)(F)F)CC[C@@H]1C)[C@H]1O[C@]2(C=C[C@@H](O)[C@]3(CC[C@@](C)([C@H]4CC[C@](O)(CC)[C@H](C)O4)O3)O2)[C@H](C)C[C@@H]1C | inactive | inactive | inactive | inactive | – | – | – | – | – | – | – | – | – | – | – | – | – | – | – | – | –
O=C(O)c1cn(C2CC2)c2cc(N3CCNCC3)c(F)cc2c1=O | – | – | – | – | – | – | – | – | – | – | – | – | – | – | – | – | – | – | – | – | inhibition [21]: Active; inhibition [22]: Active
C#CCN[C@@H]1C=C[C@]2(O[C@H]([C@@H](CC)C(=O)[C@@H](C)[C@@H](O)[C@H](C)[C@@H]3O[C@@H]([C@@H](CC)C(=O)O)CC[C@@H]3C)[C@@H](C)C[C@H]2C)O[C@@]12CC[C@@](C)([C@H]1CC[C@](O)(CC)[C@H](C)O1)O2 | inactive | inactive | inactive | inactive | 1.27 (≈ 1 µg/mL) | 1.27 (≈ 1 µg/mL) | 1.27 (≈ 1 µg/mL) | 1.27 (≈ 1 µg/mL) | 2.54 (≈ 2 µg/mL) | 81.2 (≈ 64 µg/mL) | 40.6 (≈ 32 µg/mL) | 81.2 (≈ 64 µg/mL) | 81.2 (≈ 64 µg/mL) | 1.27 (≈ 1 µg/mL) | 2.54 (≈ 2 µg/mL) | 1.27 (≈ 1 µg/mL) | 1.27 (≈ 1 µg/mL) | 2.54 (≈ 2 µg/mL) | 34 | 30 | inhibition [21]: Active; inhibition [22]: Active
C#CCNC(=O)[C@H](CC)[C@H]1CC[C@H](C)[C@H]([C@@H](C)[C@H](O)[C@H](C)C(=O)[C@H](CC)[C@H]2O[C@]3(C=C[C@@H](O)[C@]4(CC[C@@](C)([C@H]5CC[C@](O)(CC)[C@H](C)O5)O4)O3)[C@H](C)C[C@@H]2C)O1 | inactive | inactive | inactive | inactive | – | – | – | – | – | – | – | – | – | – | – | – | – | – | – | – | –
